Assay: mn = molality of the nth substance listed, in mol/kg
Conditions: Liquid, Vibrating tube method

[Cl-].[Cl-].[Sr+2] [strontium chloride] + O
mass density [kg/m3]
Conditions | 298.11 K | 323.13 K | 348.12 K | 373.12 K | 398.08 K | 423.07 K | 448.03 K | 473.02 K
1100 kPa, m1 = 1.022 | 1130.15 | 1118.47 | 1104.6 | 1088.34 | 1069.78 | 1049.35 | 1026.97 | –
1100 kPa, m1 = 2.024 | 1247.6 | 1234.1 | 1219.34 | 1202.92 | 1184.72 | 1165.03 | 1143.84 | –
1100 kPa, m1 = 3.031 | 1354.92 | 1340.16 | 1324.81 | 1308.43 | 1290.36 | 1271.02 | 1250.51 | –
10100 kPa, m1 = 1.022 | 1133.6 | 1121.92 | 1108.06 | 1092.02 | 1073.81 | 1053.57 | 1031.7 | 1007.66
10100 kPa, m1 = 2.024 | 1250.68 | 1237.28 | 1222.48 | 1206.28 | 1188.28 | 1168.83 | 1147.95 | 1125.38
10100 kPa, m1 = 3.031 | 1357.74 | 1343.03 | 1327.78 | 1311.58 | 1293.65 | 1274.46 | 1254.24 | 1232.68
20100 kPa, m1 = 1.022 | 1137.52 | 1125.75 | 1111.92 | 1095.98 | 1078.08 | 1058.3 | 1037.05 | 1013.5
20100 kPa, m1 = 2.024 | 1254.27 | 1240.69 | 1226.06 | 1209.96 | 1192.23 | 1173.04 | 1152.74 | 1130.5
20100 kPa, m1 = 3.031 | 1360.96 | 1346.27 | 1331.14 | 1315.04 | 1297.24 | 1278.29 | 1258.62 | 1237.28
30100 kPa, m1 = 1.022 | 1141.28 | 1129.44 | 1115.71 | 1100.03 | 1082.31 | 1062.95 | 1042 | 1019.02
30100 kPa, m1 = 2.024 | 1257.65 | 1244.1 | 1229.57 | 1213.53 | 1196.08 | 1177.32 | 1157.21 | 1135.33
30100 kPa, m1 = 3.031 | 1364.07 | 1349.35 | 1334.39 | 1318.4 | 1300.87 | 1282.22 | 1262.72 | 1241.64
40100 kPa, m1 = 1.022 | 1145.04 | 1133.12 | 1119.42 | 1103.81 | 1086.33 | 1067.24 | 1046.83 | 1024.58
40100 kPa, m1 = 2.024 | 1260.99 | 1247.56 | 1233.02 | 1217.2 | 1199.73 | 1181.23 | 1161.52 | 1140.28
40100 kPa, m1 = 3.031 | 1367.19 | 1352.55 | 1337.62 | 1321.75 | 1304.29 | 1285.9 | 1266.77 | 1246.19
50100 kPa, m1 = 1.022 | 1148.76 | 1136.68 | 1123.04 | 1107.65 | 1090.29 | 1071.7 | 1051.49 | 1029.72
50100 kPa, m1 = 2.024 | 1264.44 | 1250.9 | 1236.41 | 1220.6 | 1203.4 | 1185.23 | 1165.8 | 1144.86
50100 kPa, m1 = 3.031 | 1370.34 | 1355.63 | 1340.81 | 1324.88 | 1307.65 | 1289.64 | 1270.62 | 1250.44
60100 kPa, m1 = 1.022 | 1152.26 | 1140.25 | 1126.67 | 1111.38 | 1094.27 | 1075.85 | 1056.12 | 1034.76
60100 kPa, m1 = 2.024 | 1267.55 | 1254.09 | 1239.66 | 1224.07 | 1207.02 | 1189.05 | 1169.91 | 1149.32
60100 kPa, m1 = 3.031 | 1373.16 | 1358.71 | 1343.89 | 1328.14 | 1311.1 | 1293.25 | 1274.47 | 1254.53
68600 kPa, m1 = 1.022 | 1155.3 | 1143.18 | 1129.67 | 1114.46 | 1097.55 | 1079.3 | 1059.85 | 1038.86
68600 kPa, m1 = 2.024 | 1270.33 | 1256.76 | 1242.52 | 1226.94 | 1210.03 | 1192.19 | 1173.33 | 1153.07
68600 kPa, m1 = 3.031 | 1375.7 | 1361.18 | 1346.54 | 1330.91 | 1313.86 | 1296.08 | 1277.59 | 1257.93

O=S(=O)([O-])[O-].[Na+].[Na+] [sodium sulfate] + O
mass density [kg/m3]
Conditions | 298.11 K | 323.13 K | 348.12 K | 373.12 K | 398.08 K | 423.07 K | 448.03 K | 473.02 K
1100 kPa, m1 = 0.783 | 1089.58 | 1077.81 | 1063.59 | 1047 | 1028.03 | 1006.98 | 983.81 | –
1100 kPa, m1 = 1.502 | 1164.61 | 1151.3 | 1136.41 | 1119.57 | 1100.73 | 1080.12 | 1057.71 | –
10100 kPa, m1 = 0.783 | 1092.97 | 1081.15 | 1067.05 | 1050.62 | 1032.04 | 1011.36 | 988.74 | 963.68
10100 kPa, m1 = 1.502 | 1167.61 | 1154.41 | 1139.53 | 1122.86 | 1104.32 | 1084.06 | 1062.06 | 1038.23
20100 kPa, m1 = 0.783 | 1096.83 | 1084.87 | 1070.84 | 1054.57 | 1036.41 | 1016.13 | 994.07 | 969.72
20100 kPa, m1 = 1.502 | 1170.98 | 1157.75 | 1143.04 | 1126.48 | 1108.32 | 1088.31 | 1067 | 1043.59
30100 kPa, m1 = 0.783 | 1100.47 | 1088.46 | 1074.53 | 1058.52 | 1040.58 | 1020.77 | 998.93 | 975.48
30100 kPa, m1 = 1.502 | 1174.24 | 1161 | 1146.45 | 1130.05 | 1112.1 | 1092.62 | 1071.61 | 1048.78
40100 kPa, m1 = 0.783 | 1104.07 | 1092.02 | 1078.24 | 1062.4 | 1044.61 | 1025.11 | 1004.1 | 981.03
40100 kPa, m1 = 1.502 | 1177.46 | 1164.24 | 1149.78 | 1133.55 | 1115.8 | 1096.64 | 1076.11 | 1053.91
50100 kPa, m1 = 0.783 | 1107.68 | 1095.52 | 1081.79 | 1066.07 | 1048.55 | 1029.51 | 1008.75 | 986.37
50100 kPa, m1 = 1.502 | 1180.69 | 1167.41 | 1153.06 | 1136.94 | 1119.47 | 1100.57 | 1080.33 | 1058.64
60100 kPa, m1 = 0.783 | 1111.07 | 1098.98 | 1085.27 | 1069.75 | 1052.44 | 1033.66 | 1013.33 | 991.46
60100 kPa, m1 = 1.502 | 1183.64 | 1170.49 | 1156.2 | 1140.35 | 1123.02 | 1104.44 | 1084.59 | 1063.34
68600 kPa, m1 = 0.783 | 1113.99 | 1101.8 | 1088.2 | 1072.82 | 1055.65 | 1037.1 | 1017.15 | 995.65
68600 kPa, m1 = 1.502 | 1186.24 | 1173.08 | 1158.87 | 1143.15 | 1125.97 | 1107.66 | 1088.14 | 1067.18

O=C([O-])O.[Na+] [sodium bicarbonate] + O
mass density [kg/m3]
Conditions | 298.11 K | 323.13 K | 348.12 K | 373.12 K | 398.08 K | 423.07 K | 448.03 K | 473.02 K
1100 kPa, m1 = 0.507 | 1026.64 | 1016.27 | 1002.67 | 986.45 | 967.23 | 945.6 | 921.6 | –
1100 kPa, m1 = 1 | 1053.32 | 1042.1 | 1028.17 | 1011.61 | 992.49 | 971.16 | 947.75 | –
10100 kPa, m1 = 0.507 | 1030.34 | 1019.92 | 1006.34 | 990.43 | 971.5 | 950.33 | 926.98 | 900.8
10100 kPa, m1 = 1 | 1056.9 | 1045.63 | 1031.76 | 1015.42 | 996.59 | 975.62 | 952.76 | 927.94
20100 kPa, m1 = 0.507 | 1034.56 | 1023.96 | 1010.5 | 994.75 | 976.19 | 955.52 | 932.57 | 907.44
20100 kPa, m1 = 1 | 1060.94 | 1049.49 | 1035.74 | 1019.51 | 1001.1 | 980.58 | 958.38 | 934.21
30100 kPa, m1 = 0.507 | 1038.58 | 1027.87 | 1014.5 | 998.96 | 980.67 | 960.51 | 938.23 | 913.71
30100 kPa, m1 = 1 | 1064.78 | 1053.27 | 1039.62 | 1023.49 | 1005.36 | 985.4 | 963.67 | 940.3
40100 kPa, m1 = 0.507 | 1042.55 | 1031.74 | 1018.42 | 1003.05 | 985.06 | 965.22 | 943.62 | 919.81
40100 kPa, m1 = 1 | 1068.62 | 1057.11 | 1043.26 | 1027.56 | 1009.57 | 989.89 | 968.83 | 946.08
50100 kPa, m1 = 0.507 | 1046.47 | 1035.56 | 1022.29 | 1007.05 | 989.37 | 969.93 | 948.68 | 925.55
50100 kPa, m1 = 1 | 1072.42 | 1060.81 | 1047.06 | 1031.43 | 1013.71 | 994.52 | 973.77 | 951.65
60100 kPa, m1 = 0.507 | 1050.19 | 1039.28 | 1026.03 | 1010.74 | 993.56 | 974.48 | 953.67 | 931
60100 kPa, m1 = 1 | 1075.95 | 1064.4 | 1050.67 | 1035.29 | 1017.88 | 998.85 | 978.58 | 956.83
68600 kPa, m1 = 0.507 | 1053.46 | 1042.41 | 1029.22 | 1014.16 | 996.98 | 978.13 | 957.69 | 935.54
68600 kPa, m1 = 1 | 1079.05 | 1067.35 | 1053.84 | 1038.44 | 1021.02 | 1002.43 | 982.48 | 961.25

From the NIST ThermoML archive (doi:10.1021/je301132p)
